Values after ≈ are worked out from the molar mass of the structure shown.

For one data set, the system named is B. cereus ATTC10987. As to the kind of experiment: Membrane integrity assay (propidium iodide uptake). Type of data set: cell-based, Bacillus cereus. The note with it: 2×, 1×, and 0.5× the MIC. Here is the method: B. cereus ATTC10987 was grown in LB with shaking at 37 °C for 18 h. After that, the cells were centrifuged and washed in 5 mM HEPES buffer (pH 7.4) plus 5 mM glucose (G-HEPES buffer) three times, adjusted to an OD600 of 0.5 in the same buffer plus 10 μg/mL of propidium iodide (Sigma-Aldrich), and incubated for 10 min at 37 °C. This is a nonfluorescent dye impermeable to the bacterial membranes, but, if the membranes are disturbed, the dye can enter by binding the DNA, providing a strong fluorescent signal. […] The experiment was performed in triplicate.

Data set [1] concerns B. cereus ATCC10987 respiratory chain. As to the kind of experiment: Activity of the respiratory chain (resazurin reduction). Type of data set: cell-based, Bacillus cereus. Particulars: dose-related, 125 min. Here is the method: The effect of the resveratrol derivatives on the B. cereus ATCC10987 respiratory chain was measured by the reduction of resazurin to the fluorescent resorufin. The bacteria were cultured in LB medium at 37 °C to an OD600 of 1. Then, the cells were washed three times in cMHB and resuspended in this medium at a final OD600 of 0.2. Resazurin at 100 μg/mL was added to the cells that were distributed in a 96-well plate. […] No treated cells and just MHB medium with resazurin were used as negative controls. All the tests were performed in triplicate.
Background: Alamar Blue is a resazurin reagent that responds to reducing activity.

A further data set relates to S. aureus. On the set-up: method as in PMID 29906565. Particulars: cited from earlier work.
The next data set can be described thus: in vitro. The note with it: human.
The test system of data set [2] is B. cereus ATCC10987. Nature of the data set: Membrane potential assay DiSC3(5). Particulars: 2×, 1×, and 0.5× the MIC.
The test system of data set [3] is B. cereus ATCC10987. Nature of the data set: Intracellular ATP level quantification (BacTiter-Glo). Particulars: 32 μM of the compounds (100 μM for CCCP), 30, 60, and 120 min, 37 °C.
Data set [4] relates to B. cereus ATCC10987. As to the kind of experiment: microbe, parasite or virus in culture. Type of data set: cell-based, Bacillus cereus. The note with it: Bacillus cereus, ATCC10987, 20 h, read-out: Minimal Inhibition Concentration (MIC) B. cereus ATCC10987.
The test system of another data set is B. cereus ATCC14579. As to the kind of experiment: microbe, parasite or virus in culture. Particulars: Bacillus cereus, ATCC14579, 20 h, read-out: Minimal Inhibition Concentration (MIC) B. cereus ATCC14579. Type of data set: cell-based, Bacillus cereus.
The subject of the next data set is E. faecalis V583. Nature of the data set: microbe, parasite or virus in culture. The note with it: Enterococcus faecalis, V583, 20 h, read-out: Minimal Inhibition Concentration (MIC) E. faecalis V583. In kind it is cell-based, Enterococcus faecalis.
In a further data set the test system is S.aureus LMG10147. Nature of the data set: microbe, parasite or virus in culture. In kind it is cell-based, Staphylococcus aureus. The note with it: Staphylococcus aureus, LMG10147, 20 h, read-out: Minimal Inhibition Concentration (MIC) S.aureus LMG10147.
A further data set deals with C. difficile CECT531. As to the kind of experiment: microbe, parasite or virus in culture. In kind it is cell-based, Clostridioides difficile. Particulars: Clostridioides difficile, CECT531, 24 h, read-out: Minimal Inhibition Concentration (MIC) C. difficile CECT531.
The next data set concerns C. perfringens CECT376. Nature of the data set: microbe, parasite or virus in culture. Type of data set: cell-based. Particulars: Clostridium perfringens, CECT376, 24 h, read-out: Minimal Inhibition Concentration (MIC) C. perfringens CECT376.
Data set [5] concerns panel of aerobic and anaerobic Gram-positive bacteria. As to the kind of experiment: organism not typed. Type of data set: cell-based.
In another data set the test system is Enterococcus strains. As to the kind of experiment: Time killing kinetic and minimal bactericidal concentration, Enterococcus. In kind it is cell-based.
Data set [6] deals with B. cereus ATCC10987. Nature of the data set: Effect of the compounds on actively growing bacteria (lysis, OD600). In kind it is cell-based, Bacillus cereus.
Data set [7] relates to E. faecium LMG16003 and S. aureus LMG82224. Nature of the data set: Combination with 24 traditional antibiotics, overall outcome. In kind it is cell-based.
A further data set concerns E. coli LMG8224. As to the kind of experiment: Outer membrane permeabilization test (MIC with or without L-11 peptide). The note with it: Escherichia coli, LMG8224, read-out: MIC (μM) L-11 + 0 μM.

The term IC50 denotes the concentration needed to halve the response being measured. Low values mean greater potency in that assay, high ones weaker potency in that assay. Regarding `Oc1ccc(/C=C/c2cc(O)cc(O)c2)cc1` [compound 1, Resveratrol], the “membrane permeabilization (propidium iodide uptake)” value in the data set with B. cereus ATTC10987 is “did not induce any effect on membrane permeability”. For the same compound, the “effect on the respiratory chain (reduction of resazurin)” value in [1] is “No effect”. Also, the “concentration 0.5× the MIC at which additive effects with aminoglycosides were obtained” value in the data set on S. aureus was “about 560 μM”. The compound further gave an IC50 at 72 h in the data set “in vitro” of 56.6 ± 3.2 µM. For the same compound, the “membrane potential change (DiSC3(5))” value in the data set on B. cereus ATCC10987 [2] is “did not induce any membrane potential change”. Further, the “intracellular ATP levels” value in the data set on B. cereus ATCC10987 [3] is given as “did not statistically affect the ATP levels”.
Regarding `CCCCOc1cc(/C=C/c2ccc(OS(=O)(=O)O)cc2)cc(OS(=O)(=O)O)c1` [compound 15, 3-butyl-4′,5-disulfate resveratrol], the MIC in the data set with B. cereus ATCC10987 [4] was determined as 8 µM (≈ 3.56 µg/mL); in the data set on B. cereus ATCC14579 it was 6.6 ± 1.3 µM (≈ 2.93 µg/mL); in the data set with E. faecalis V583 it was 26.6 ± 5.3 µM (≈ 11.8 µg/mL); with S.aureus LMG10147, 8 µM (≈ 3.56 µg/mL); in the data set with C. difficile CECT531, 64 µM (≈ 28.4 µg/mL); with C. perfringens CECT376 it was 26.6 ± 5.3 µM (≈ 11.8 µg/mL). Further, in the data set with E. coli LMG8224, the MIC is greater than 128 µM. The “antibacterial activity against the Gram-positive panel” value in data set [5] was “active against all Gram-positive bacterial strains examined”. Besides, the bactericidal/bacteriostatic effect result in the data set with Enterococcus strains (Enterococcus strains, 2-fold the MIC, 24 h, minimal bactericidal concentration test) is given as “bacteriostatic”. In addition, the MBC with Enterococcus strains (Enterococcus, read-out: minimal bactericidal concentration (bacteria grew after the treatment)) was greater than 128 µM. For the same compound, the “effect on actively growing cells” value with B. cereus ATCC10987 [6] (at 2× the MIC) is “bactericidal”; with B. cereus ATCC10987 [6] (at the MIC concentration), “bacteriostatic”. Further, the “combined effect with traditional antibiotics” value in data set [7] is “strong synergistic effects”. Further, in the data set “in vitro”, the IC50 turned out to be 24.9 ± 4 µM.
